Measurements taken from US20220257552A1, “METHODS OF PRESCREENING AND TREATING BREAST CANCERS WITH SELECTIVE ANDROGEN RECEPTOR MODULATORS” (priority 2021, published 2022).

Key:
[1] = tested on: MCF-7 cells expressing AR; assay: MCF-7-AR cell viability (SRB); format: cell-based; conditions: 6 days
Method: After 6 days of treatment, cells were harvested, and the number of cells was counted. […] Medium was changed after 3 days and re-treated. Cells were fixed after 6 days of treatment and the cell viability was measured by SRB assay. […] Medium was changed, and the cells were re-treated on days 4 and 7. Medium was collected, pooled from triplicates, and stored in −80° C. After 10 days of treatment, cells were fixed, and cell viability was measured using SRB. MCF-7 cells stably transfected with GFP (MCF-7-GFP) were plated in growth medium. Twenty-four hours after plating, cells were fed with the conditioned medium obtained from patient-derived fibroblasts as indicated above. Cells were fed for 10 days with conditioned medium, with medium changed on days 4 and 7. After 10 days of treatment, cells were fixed, and the viability was measured by SRB assay. […] AR-positive, but ER-negative HCI-9 PDX was surgically implanted as 1 mm^3 fragments under the mammary fat pad in NSG mice (n=8-10/group). […] Tumor volume was measured thrice weekly. […] ER-α from HCI-13 was cloned into pCR3.1 vector. […] Values are expressed as average±S.E. from n=3-4/data point.
Cells were plated at varying densities in growth medium in 96 well plates. Cells were treated as indicated in the figures and viability measured using sulforhodamine B (SRB) or the number of cells counted using Coulter counter.

[2] = Phase 1 multiple ascending dose study G100402; format: in vivo, human
Source text: These include: 1. Protocol G100401, a Phase 1 single ascending dose study in 96 healthy, young, male volunteers; 2. Protocol G100402, a Phase 1 multiple ascending dose study in 50 healthy, young, male volunteers, and 23 elderly male volunteers with truncal obesity; 3. Protocol G100503, a Phase 1 single dose pharmacokinetic study to assess the effect of a dosage regimen that simulates a sustained release formulation to an immediate release formulation in 18 healthy, young male volunteers and 18 postmenopausal women; 4. Protocol G100506, a Phase 1 single dose pharmacokinetic study to assess the relative bioavailability of a 3 mg hard shell capsule formulation to be used during continued clinical development and to assess the effect of food on the pharmacokinetics of the 3 mg softgel formulation in 27 healthy, young, male volunteers; 5. Protocol 006, a Phase 1 single dose and multiple dose pharmacokinetic study in 24 postmenopausal, Japanese women; 6. Protocol G200501, a Phase 2 study in 60 postmenopausal women and 60 elderly men to assess lean body mass and physical function; 7. Protocol 003, a Phase 1b study in 44 postmenopausal women; 8. Protocol G200502, a Phase 2b study in 159 men and postmenopausal women with cancer to assess lean body mass and physical function; 9.
Both 10 mg and 30 mg daily doses were evaluated in Protocol G100402 for up to 14 days. […]

[3] = tested on: breast cancer specimens obtained from patients; assay: Breast cancer patient specimens, ex vivo sponge culture; format: cell-based, human
Method: Specimens from breast cancer patients were collected with patient consent under a protocol approved by the UTHSC Institutional Review Board (IRB). Specimens were collected immediately after surgery in RPMI medium containing penicillin:streptomycin and Fungizone and transported to the laboratory on ice. The tissues were finely minced and treated with collagenase for 2 hours.
HCI-13 tumors grown in female mice were allowed to reach 500-1000 mm^3 before the animals were sacrificed and the tumors were excised to be used for sponge culture. Patient specimens frozen in liquid nitrogen in freezing medium were used for sponge culture. […] Tumors were sliced into small pieces (˜1 mm^3) and incubated on pre-soaked gelatin sponges (5 fragments/sponge) in 12 well plates containing 1.5 mL medium (MEM+10% FBS+2 mM L-glutamine+10 μg/mL insulin+10 μg/mL hydrocortisone+penicillin:streptomycin). The cultures were performed in triplicates for HCI-13 and singly for patient specimens. Pooled samples (n=5/sponge) from each sponge constituted one sample. Tissues were harvested after 3 days of treatment, RNA extracted, and expression of various genes measured. Although the same procedure was adopted for specimens obtained from breast cancer patients, the specimens were cultured singly (n=5/sponge=one sample) and not in triplicates as performed for HCI-13.
Like other cancers, breast cancer is also heterogeneous in its genomic profile as well as in its response to treatments. […] Three days after treatment, RNA was isolated from the tissues and expression of ER- and AR-target genes was measured.

MCF-7-AR tumors = assay: Affymetrix microarray of MCF-7-AR tumors; format: in vivo, mice; conditions: Table 9
Method: Microarray Analysis was performed on RNA from MDA-MB-231-AR and MCF-7-AR tumors in order to identify and compare changes in gene expression in ER-negative (MDA-MB-231-AR; triple negative) an ER-positive (MCF-7-AR; triple positive) breast cancer tumors treated with a compound of Formula VIII (30 mg/kg/day p.o. for 4 weeks). Affymetrix analysis of the xenografts was done on pooled samples of the xenografts. The analysis included ˜70,000 sequences with ˜30,000 genes and variations thereof represented, as well as microRNA's. RNA was isolated and expression of genes was evaluated using microarray (Affymetrix Human Gene ST 2.0 array). Expression of genes in compound of Formula VIII-treated samples was compared with the expression in vehicle-treated samples.

SMILES | proliferation / cell viability [1] | subjects with ALT increases above two times the ULN ([2]; 30 mg dose group) | tolerability ([2]; daily doses up to 30 mg, healthy male volunteers) | specimens in which AR agonist activity was observed ([3]; 1 μM) | specimens in which ER function was inhibited ([3]; 1 μM Formula IX, 100 nM fulvestrant, 3 days) | AHR expression (MCF-7-AR tumors) | CDT1 expression (MCF-7-AR tumors) | Catalase expression (MCF-7-AR tumors) | EHMT1 expression (MCF-7-AR tumors) | ER-α expression (MCF-7-AR tumors) | ERCC2 expression (MCF-7-AR tumors) | FACGD2 expression (MCF-7-AR tumors) | IRS1 expression (MCF-7-AR tumors) | KLK3 expression (MCF-7-AR tumors) | MTR expression (MCF-7-AR tumors) | NPAS2 expression (MCF-7-AR tumors) | PON2 expression (MCF-7-AR tumors) | PR expression (MCF-7-AR tumors) | TIMP3 expression (MCF-7-AR tumors) | XRCC1 expression (MCF-7-AR tumors)
C[C@](O)(COc1ccc(C#N)cc1)C(=O)Nc1ccc(C#N)c(C(F)(F)F)c1 [Formula IX, (S)—N-(4-Cyano-3-(trifluoromethyl)phenyl)-3-(4-cyanophenoxy)-2-hydroxy-2-methylpropanamide] | inhibited proliferation | six | well tolerated | 4 of 8 | 3 of 8 |  |  |  |  |  |  |  |  |  |  |  |  |  |  | 
C[C@](O)(COc1ccc(C#N)cc1)C(=O)Nc1ccc(C#N)c(Cl)c1 [Formula VIII, (S)—N-(3-chloro-4-cyanophenyl)-3-(4-cyanophenoxy)-2-hydroxy-2-methylpropanamide] |  |  |  |  |  | Increased | Decreased | Increased | Increased | Decreased | Decreased | Decreased | Decreased | Increased | Decreased | Increased | Increased | Decreased | Increased | Decreased
